Assay results from the supplement of paper PMC11061612.

Key:
[1] = test system: Becker (Low Grade Glioma); assay: Bliss excess, mean over the matrix (fraction); higher = more synergy
Method in brief: (§1)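 Cell lines in DMEM/F12 or RPMI with 10% FBS were plated in 1536-well plates, held 24 hours at 37°C, 5% CO2, then given two-drug dose matrices for 72 hours (DMSO typically 0.2%). Viability was read by CellTiter-Glo 2.0 luminescence and scaled as inhibition from 0 (vehicle wells) to 1 (blank wells). Combination Emax is the second-highest inhibition in the matrix; Bliss excess is observed combination effect minus expected EA + EB − EA·EB, EA and EB being single-agent effects.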

ES-2 (Ovarian Carcinoma) [2] = assay: as above
Method in brief: as §1

[3] = test system: AN3-CA (Endometrial Carcinoma); assay: combination Emax (second highest fraction inhibited in the dose matrix, 72 h); higher = more inhibition; extreme values may be limits of the assay
Method in brief: as §1

[4] = test system: AsPC-1 (Pancreatic Carcinoma); assay: as above
Method in brief: as §1

CHL-1 (Melanoma) = assay: as above
Method in brief: as §1

[5] = test system: EB-3 (Burkitt's Lymphoma); assay: as above
Method in brief: as §1

ES-2 (Ovarian Carcinoma) [6] = assay: as above
Method in brief: as §1

[7] = test system: HSC-3 (Oral Cavity Carcinoma); assay: as above
Method in brief: as §1

[8] = test system: JHH-1 (Hepatocellular Carcinoma); assay: as above
Method in brief: as §1

[9] = test system: LOUCY (T-Lymphoblastic Leukemia); assay: as above
Method in brief: as §1

[10] = test system: NCI-H1755 (Lung Adenocarcinoma); assay: as above
Method in brief: as §1

[11] = test system: NCI-H196 (Small Cell Lung Carcinoma); assay: as above
Method in brief: as §1

[12] = test system: OCI-AML5 (Acute Myeloid Leukemia); assay: as above
Method in brief: as §1

[13] = test system: OV-90 (Ovarian Carcinoma); assay: as above
Method in brief: as §1

[14] = test system: OVTOKO (Ovarian Carcinoma); assay: as above
Method in brief: as §1

[15] = test system: PC-14 (Lung Adenocarcinoma); assay: as above
Method in brief: as §1

[16] = test system: RMG-I (Ovarian Carcinoma); assay: as above
Method in brief: as §1

[17] = test system: RPMI-8866 (Chronic Myelogenous Leukemia); assay: as above
Method in brief: as §1

[18] = test system: SK-MM-2 (Plasma Cell Myeloma); assay: as above
Method in brief: as §1

[19] = test system: SW684 (Other Solid Carcinomas); assay: as above
Method in brief: as §1
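Wherever Bliss excess, mean over the matrix is given: after 72 h of two-drug dosing.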

Row | Compound | Bliss excess [1] | Bliss excess (ES-2 (Ovarian Carcinoma) [2]) | combination Emax [3] | combination Emax [4] | combination Emax (CHL-1 (Melanoma)) | combination Emax [5] | combination Emax (ES-2 (Ovarian Carcinoma) [6]) | combination Emax [7] | combination Emax [8] | combination Emax [9] | combination Emax [10] | combination Emax [11] | combination Emax [12] | combination Emax [13] | combination Emax [14] | combination Emax [15] | combination Emax [16] | combination Emax [17] | combination Emax [18] | combination Emax [19]
1 | COc1nnc2ccc(N3CCC(c4ccc(OCCN5CCN(C)C(=O)[C@H]5C)cc4)CC3)nn12 [AZD5153] + C=CCn1c(=O)c2cnc(Nc3ccc(N4CCN(C)CC4)cc3)nc2n1-c1cccc(C(C)(C)O)n1 [AZD1775] (first compound max 1 µM, partner max 1 µM) | -0.0421 | -0.0435 | 0.435 | 0.381 | 0.624 | 0.814 | 0.747 | 0.795 | 0.584 | 1 | 0.8 | 0.473 | 0.905 | 0.378 | 0.622 | 0.883 | 0.592 | 0.952 | 0.878 | 0.452
2 | COc1cccc(OCCCN)c1-c1cc(Nc2cnc(C#N)cn2)n[nH]1 [Prexasertib] + C[C@@H]1COCCN1C2=NC(=NC(=C2)C3(CC3)[S@](=N)(=O)C)C4=C5C=CNC5=NC=C4 [AZD6738] (first compound max 1 µM, 7x7, partner max 10 µM) | -0.0317 | -0.0375 | 0.821 | 0.416 | 0.884 | 0.83 | 0.867 | 0.731 | 0.579 | 1 | 0.912 | 0.566 | 0.988 | 0.548 | 0.516 | 0.879 | 0.629 | 1 | 0.634 | 0.451
3 | CN(CCO)CC[C@H](CSc1ccccc1)Nc1ccc(S(=O)(=O)NC(=O)c2ccc(N3CCC([C@@H](O)c4ccccc4-c4ccc(Cl)cc4)CC3)cc2)cc1S(=O)(=O)C(F)(F)F [AZD4320] + Cc1cc2ncnn2cc1Nc1ncc2c(n1)n(C1CCOCC1)c(=O)n2C [AZD7648] (first compound max 1 µM, 7x7, partner max 10 µM) | -0.0211 | -0.0186 | 0.445 | 0.566 | 0.177 | 0.334 | 0.501 | 0.151 | 0.382 | 1 | 0.286 | 0.128 | 1 | 0.6 | 0.361 | 0.203 | 0.826 | 0.665 | 1 | 0.184
4 | COc1cccc(OCCCN)c1-c1cc(Nc2cnc(C#N)cn2)n[nH]1 [Prexasertib] + CN(C)CCCOc1ccc(-c2ccc3ncc4c(c3c2)n(C2CCOCC2)c(=O)n4C)cn1 [AZD0156] (first compound max 1 µM, 7x7, partner max 1 µM) | -0.0203 | 0.0072 | 0.81 | 0.444 | 0.814 | 0.838 | 0.863 | 0.654 | 0.677 | 1 | 0.936 | 0.606 | 1 | 0.532 | 0.647 | 0.85 | 0.698 | 1 | 0.652 | 0.42
5 | Cc1c2c(nn1C)CSCc1cc(n(C)n1)CSc1cc(c3ccccc3c1)OCCCc1c(C(=O)O)n(C)c3c-2c(Cl)ccc13 [AZD5991] + CCN(CCO)CCCOc1ccc2c(Nc3cc(CC(=O)Nc4cccc(F)c4)[nH]n3)ncnc2c1 [AZD2811] (first compound max 1 µM, 7x7, partner max 1 µM) | -0.0165 | -0.0298 | 0.584 | 0.243 | 0.933 | 0.35 | 0.345 | 0.91 | 0.517 | 0.983 | 0.619 | 0.222 | 1 | 0.262 | 0.241 | 0.371 | 0.303 | 0.764 | 0.487 | 0.231
6 | COc1cccc(OCCCN)c1-c1cc(Nc2cnc(C#N)cn2)n[nH]1 [Prexasertib] + CCc1c2c(nc3ccc(O)cc13)-c1cc3c(c(=O)n1C2)COC(=O)[C@]3(O)CC [SN-38] (first compound max 1 µM, 7x7, partner max 0.3 µM) | -0.0716 | -0.0222 | 0.946 | 0.41 | 0.877 | 0.87 | 0.988 | 0.937 | 0.75 | 1 | 0.952 | 0.659 | 1 | 0.573 | 0.532 | 0.894 | 0.505 | 1 | 0.875 | 0.642
7 | CC1(C)CCC(CN2CCN(c3ccc(C(=O)NS(=O)(=O)c4ccc(NCC5CCOCC5)c([N+](=O)[O-])c4)c(Oc4cnc5[nH]ccc5c4)c3)CC2)=C(c2ccc(Cl)cc2)C1 [Venetoclax] + CN(C)CCCOc1ccc(-c2ccc3ncc4c(c3c2)n(C2CCOCC2)c(=O)n4C)cn1 [AZD0156] (first compound max 1 µM, 7x7, partner max 1 µM) | 0.0229 | 0.0069 | 0.227 | 0.193 | 0.27 | 0.343 | 0.22 | 0.233 | 0.214 | 1 | 0.654 | 0.113 | 0.901 | 0.3 | 0.385 | 0.259 | 0.348 | 0.0785 | 1 | 0.284
8 | Cn1cnc2c(F)c(Nc3ccc(Br)cc3Cl)c(C(=O)NOCCO)cc21 [Selumetinib] + CC(C)n1c(=O)n(C)c2cnc3cc(F)c(-c4ccc(OCCCN5CCCCC5)nc4)cc3c21 [AZD1390] (first compound max 10 µM, 7x7, partner max 0.3 µM) | -0.007 | -0.0215 | 0.0572 | 0.357 | 0.0273 | 0.215 | 0.377 | 0.346 | 0.252 | 0.35 | 0.235 | 0.0904 | 0.9 | 0.598 | 0.185 | 0.326 | 0.362 | 0.193 | 0.174 | 0.152
9 | CCN(CCO)CCCOc1ccc2c(Nc3cc(CC(=O)Nc4cccc(F)c4)[nH]n3)ncnc2c1 [AZD2811] + C=CCn1c(=O)c2cnc(Nc3ccc(N4CCN(C)CC4)cc3)nc2n1-c1cccc(C(C)(C)O)n1 [AZD1775] (first compound max 1 µM, partner max 1 µM) | -0.0465 | -0.0111 | 0.308 | 0.293 | 0.658 | 0.62 | 0.627 | 0.492 | 0.335 | 1 | 0.76 | 0.468 | 0.978 | 0.654 | 0.419 | 0.842 | 0.256 | 1 | 0.644 | 0.165
10 | CC1(C)CCC(CN2CCN(c3ccc(C(=O)NS(=O)(=O)c4ccc(NCC5CCOCC5)c([N+](=O)[O-])c4)c(Oc4cnc5[nH]ccc5c4)c3)CC2)=C(c2ccc(Cl)cc2)C1 [Venetoclax] + C[C@@H]1COCCN1C2=NC(=NC(=C2)C3(CC3)[S@](=N)(=O)C)C4=C5C=CNC5=NC=C4 [AZD6738] (first compound max 1 µM, 7x7, partner max 10 µM) | -0.0388 | -0.0372 | 0.653 | 0.264 | 0.879 | 0.6 | 0.789 | 0.548 | 0.609 | 1 | 0.828 | 0.376 | 1 | 0.533 | 0.566 | 0.845 | 0.545 | 0.958 | 1 | 0.48
11 | CC1(C)CCC(CN2CCN(c3ccc(C(=O)NS(=O)(=O)c4ccc(NCC5CCOCC5)c([N+](=O)[O-])c4)c(Oc4cnc5[nH]ccc5c4)c3)CC2)=C(c2ccc(Cl)cc2)C1 [Venetoclax] + C=CCn1c(=O)c2cnc(Nc3ccc(N4CCN(C)CC4)cc3)nc2n1-c1cccc(C(C)(C)O)n1 [AZD1775] (first compound max 1 µM, partner max 1 µM) | 0.0593 | -0.0297 | 0.446 | 0.282 | 0.891 | 0.674 | 0.644 | 0.492 | 0.578 | 1 | 0.846 | 0.574 | 1 | 0.512 | 0.529 | 0.93 | 0.57 | 0.951 | 1 | 0.604
12 | CCN(CCO)CCCOc1ccc2c(Nc3cc(CC(=O)Nc4cccc(F)c4)[nH]n3)ncnc2c1 [AZD2811] + C[C@@H]1COCCN1C2=NC(=NC(=C2)C3(CC3)[S@](=N)(=O)C)C4=C5C=CNC5=NC=C4 [AZD6738] (first compound max 1 µM, 7x7, partner max 10 µM) | -0.0343 | -0.0445 | 0.48 | 0.42 | 0.805 | 0.644 | 0.728 | 0.454 | 0.504 | 1 | 0.788 | 0.276 | 0.983 | 0.429 | 0.37 | 0.83 | 0.497 | 0.955 | 0.533 | 0.385
13 | Cc1cc2ncnn2cc1Nc1ncc2c(n1)n(C1CCOCC1)c(=O)n2C [AZD7648] + CCN(CCO)CCCOc1ccc2c(Nc3cc(CC(=O)Nc4cccc(F)c4)[nH]n3)ncnc2c1 [AZD2811] (first compound max 10 µM, 7x7, partner max 1 µM) | 0.0154 | 0.0083 | 0.354 | 0.267 | 0.308 | 0.554 | 0.288 | 0.455 | 0.113 | 0.948 | 0.599 | 0.185 | 0.969 | 0.323 | 0.232 | 0.312 | 0.466 | 0.732 | 0.313 | 0.352
